Assay results published in publication PMC6750840 (Journal of Medicinal Chemistry, 2019).
One block for each molecule: values may come before it.

Legend:
[1] = tested on: histamine-induced flare response; conditions: after oral administration; cited from earlier work
[2] = after administration; cited from earlier work
H1R = conditions: cited from earlier work
human H1R = human H1R (Homo sapiens, UniProt P35367); experiment: Binding rate constants of [3H]levocetirizine; conditions: four concentrations (1–35 nM), 360 min, 37 °C
human H1R, sequence (P35367 whole entry): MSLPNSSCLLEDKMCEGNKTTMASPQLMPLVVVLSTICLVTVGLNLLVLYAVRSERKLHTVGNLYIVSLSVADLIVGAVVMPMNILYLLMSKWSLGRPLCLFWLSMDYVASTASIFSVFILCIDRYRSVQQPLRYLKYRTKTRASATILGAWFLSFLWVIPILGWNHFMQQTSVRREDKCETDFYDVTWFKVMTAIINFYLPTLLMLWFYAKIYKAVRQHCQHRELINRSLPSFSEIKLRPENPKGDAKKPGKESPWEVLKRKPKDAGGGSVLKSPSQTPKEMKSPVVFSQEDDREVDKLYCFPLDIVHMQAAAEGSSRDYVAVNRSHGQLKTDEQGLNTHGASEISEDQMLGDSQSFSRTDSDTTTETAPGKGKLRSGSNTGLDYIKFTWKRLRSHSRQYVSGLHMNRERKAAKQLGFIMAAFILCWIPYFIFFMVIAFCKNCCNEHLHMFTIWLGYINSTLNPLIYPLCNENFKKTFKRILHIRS

Molecule: Cc1cncc(CN2CCC(=C3c4ccc(Cl)cc4CCc4cccnc43)CC2)c1 [Compound 1, rupatadine]
duration of antagonism of the histamine-induced flare response [1]: up to 72 h
time up to which plasma levels could be detected [2]: up to 12 h

Molecule: O=C(O)COCCN1CCN([C@H](c2ccccc2)c2ccc(Cl)cc2)CC1 [levocetirizine]
fold longer residence time at the H1R than mepyramine (H1R): 100 fold

koff (human H1R): 0.022 ± 0.003 min^–1
kon (human H1R): 3.7 ± 0.4 10^6 min^–1 M^–1
Molecule: (R)-5-(4-((4-Chlorophenyl)([4-^3H]phenyl)methyl)piperazin-1-yl)pentanoic Acid [[^3H]levocetirizine]
